According to PubChem BioAssay (NCI):
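Each compound was tested at five concentrations against cells in 96-well plates for 48 hours. The concentration for full growth arrest is given as TGI.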

Experiments:
Assay in all cases: NCI tumour cell line growth inhibition, 48 h
786-0 renal = test system: 786-0 renal
A498 renal = test system: A498 renal
A549 NSCLC = test system: A549 NSCLC
ACHN renal = test system: ACHN renal
BT-549 breast = test system: BT-549 breast
CAKI-1 renal = test system: CAKI-1 renal
CCRF-CEM leukemia = test system: CCRF-CEM leukemia
COLO 205 colon = test system: COLO 205 colon
DU-145 prostate = test system: DU-145 prostate
EKVX NSCLC = test system: EKVX NSCLC
HCC-2998 colon = test system: HCC-2998 colon
HCT-116 colon = test system: HCT-116 colon
HCT-15 colon = test system: HCT-15 colon
HL-60(TB) leukemia = test system: HL-60(TB) leukemia
HOP-62 NSCLC = test system: HOP-62 NSCLC
HOP-92 NSCLC = test system: HOP-92 NSCLC
HS 578T breast = test system: HS 578T breast
HT29 colon = test system: HT29 colon
IGROV1 ovarian = test system: IGROV1 ovarian
K-562 leukemia = test system: K-562 leukemia
KM12 colon = test system: KM12 colon
LOX IMVI melanoma = test system: LOX IMVI melanoma
M14 melanoma = test system: M14 melanoma
MALME-3M melanoma = test system: MALME-3M melanoma
MCF7 breast = test system: MCF7 breast
MDA-MB-231 breast = test system: MDA-MB-231 breast
MDA-MB-435 = test system: MDA-MB-435
MDA-N = test system: MDA-N
MOLT-4 leukemia = test system: MOLT-4 leukemia
NCI-H226 lung = test system: NCI-H226 lung
NCI-H23 lung = test system: NCI-H23 lung
NCI-H460 lung = test system: NCI-H460 lung
NCI-H522 lung = test system: NCI-H522 lung
NCI/ADR-RES ovarian = test system: NCI/ADR-RES ovarian
OVCAR-3 ovarian = test system: OVCAR-3 ovarian
OVCAR-5 ovarian = test system: OVCAR-5 ovarian
OVCAR-8 ovarian = test system: OVCAR-8 ovarian
PC-3 prostate = test system: PC-3 prostate
RPMI-8226 leukemia = test system: RPMI-8226 leukemia
RXF 393 renal = test system: RXF 393 renal
SF-268 CNS = test system: SF-268 CNS
SF-295 CNS = test system: SF-295 CNS
SF-539 CNS = test system: SF-539 CNS
SK-MEL-28 melanoma = test system: SK-MEL-28 melanoma
SK-MEL-5 melanoma = test system: SK-MEL-5 melanoma
SK-OV-3 ovarian = test system: SK-OV-3 ovarian
SN12C renal = test system: SN12C renal
SNB-19 CNS = test system: SNB-19 CNS
SNB-75 CNS = test system: SNB-75 CNS
SR leukemia = test system: SR leukemia
SW-620 colon = test system: SW-620 colon
T-47D breast = test system: T-47D breast
TK-10 renal = test system: TK-10 renal
U251 CNS = test system: U251 CNS
UACC-257 melanoma = test system: UACC-257 melanoma
UACC-62 melanoma = test system: UACC-62 melanoma
UO-31 renal = test system: UO-31 renal
SK-MEL-2 melanoma = test system: SK-MEL-2 melanoma

With `CCOC(=O)c1ccc(Nc2nc3ccc(C(F)(F)F)cc3nc2C(=O)OCC)cc1` the TGI (786-0 renal) was > 100 µM, the TGI (A498 renal) was > 100 µM and the TGI (A549 NSCLC) was > 100 µM. For the same compound, the TGI (ACHN renal) was > 100 µM, the TGI (BT-549 breast) was > 100 µM and the TGI (CAKI-1 renal) was > 100 µM. The TGI (CCRF-CEM leukemia) was > 100 µM, the TGI (COLO 205 colon) was > 100 µM and the TGI (DU-145 prostate) was > 100 µM. The TGI (EKVX NSCLC) was > 100 µM, the TGI (HCC-2998 colon) was > 100 µM and the TGI (HCT-116 colon) was > 100 µM. The TGI (HCT-15 colon) was > 100 µM, the TGI (HL-60(TB) leukemia) was > 100 µM and the TGI (HOP-62 NSCLC) was > 100 µM. The TGI (HOP-92 NSCLC) was > 100 µM, the TGI (HS 578T breast) was > 100 µM and the TGI (HT29 colon) was > 100 µM. The TGI (IGROV1 ovarian) was > 100 µM, the TGI (K-562 leukemia) was > 100 µM and the TGI (KM12 colon) was > 100 µM. For the same compound, the TGI (LOX IMVI melanoma) was > 100 µM, the TGI (M14 melanoma) was > 100 µM and the TGI (MALME-3M melanoma) was > 100 µM. The TGI (MCF7 breast) was > 100 µM, the TGI (MDA-MB-231 breast) was > 100 µM and the TGI (MDA-MB-435) was > 100 µM. The TGI (MDA-N) was > 100 µM, the TGI (MOLT-4 leukemia) was > 100 µM and the TGI (NCI-H226 lung) was > 100 µM. For the same compound, the TGI (NCI-H23 lung) was > 100 µM, the TGI (NCI-H460 lung) was > 100 µM and the TGI (NCI-H522 lung) was > 100 µM. For the same compound, the TGI (NCI/ADR-RES ovarian) was > 100 µM, the TGI (OVCAR-3 ovarian) was > 100 µM and the TGI (OVCAR-5 ovarian) was > 100 µM. The TGI (OVCAR-8 ovarian) was > 100 µM, the TGI (PC-3 prostate) was > 100 µM and the TGI (RPMI-8226 leukemia) was > 100 µM. For the same compound, the TGI (RXF 393 renal) was > 100 µM, the TGI (SF-268 CNS) was > 100 µM and the TGI (SF-295 CNS) was > 100 µM. The TGI (SF-539 CNS) was > 100 µM, the TGI (SK-MEL-28 melanoma) was > 100 µM and the TGI (SK-MEL-5 melanoma) was > 100 µM. The TGI (SK-OV-3 ovarian) was > 100 µM, the TGI (SN12C renal) was > 100 µM and the TGI (SNB-19 CNS) was > 100 µM. The TGI (SNB-75 CNS) was > 100 µM, the TGI (SR leukemia) was > 100 µM and the TGI (SW-620 colon) was > 100 µM. The TGI (T-47D breast) was > 100 µM, the TGI (TK-10 renal) was > 100 µM and the TGI (U251 CNS) was > 100 µM. The TGI (UACC-257 melanoma) was > 100 µM, the TGI (UACC-62 melanoma) was > 100 µM and the TGI (UO-31 renal) was > 100 µM.
For `CCOC(=O)C(NC(=O)Nc1ccc(Cl)cc1)(OC)C(F)(F)F` (configuration not stated), the TGI (786-0 renal) was > 100 µM, the TGI (A498 renal) was > 100 µM and the TGI (A549 NSCLC) was > 100 µM. The TGI (ACHN renal) was > 100 µM, the TGI (BT-549 breast) was > 100 µM and the TGI (CAKI-1 renal) was > 100 µM. For the same compound, the TGI (COLO 205 colon) was > 100 µM, the TGI (EKVX NSCLC) was > 100 µM and the TGI (HCC-2998 colon) was 32.7 µM. The TGI (HCT-116 colon) was > 100 µM, the TGI (HCT-15 colon) was > 100 µM and the TGI (HL-60(TB) leukemia) was > 100 µM. The TGI (HS 578T breast) was > 100 µM, the TGI (HT29 colon) was > 100 µM and the TGI (IGROV1 ovarian) was > 100 µM. The TGI (LOX IMVI melanoma) was > 100 µM, the TGI (M14 melanoma) was > 100 µM and the TGI (MDA-MB-435) was > 100 µM. For the same compound, the TGI (MDA-N) was > 100 µM, the TGI (NCI-H23 lung) was > 100 µM and the TGI (NCI/ADR-RES ovarian) was > 100 µM. For the same compound, the TGI (OVCAR-5 ovarian) was > 100 µM, the TGI (OVCAR-8 ovarian) was > 100 µM and the TGI (PC-3 prostate) was > 100 µM. The TGI (RXF 393 renal) was > 100 µM, the TGI (SF-268 CNS) was > 100 µM and the TGI (SF-539 CNS) was > 100 µM. For the same compound, the TGI (SK-MEL-2 melanoma) was 64.8 µM, the TGI (SK-MEL-28 melanoma) was > 100 µM and the TGI (SK-MEL-5 melanoma) was > 100 µM. For the same compound, the TGI (SK-OV-3 ovarian) was > 100 µM, the TGI (SN12C renal) was > 100 µM and the TGI (SNB-19 CNS) was > 100 µM. The TGI (SNB-75 CNS) was > 100 µM, the TGI (SR leukemia) was > 100 µM and the TGI (SW-620 colon) was > 100 µM. For the same compound, the TGI (T-47D breast) was > 100 µM, the TGI (TK-10 renal) was > 100 µM and the TGI (U251 CNS) was > 100 µM. The TGI (UACC-257 melanoma) was > 100 µM.
